Reference: patent publication US6409810B1, “Water-soluble trisazo compounds, aqueous ink composition and colored article” (Nippon Kayaku Kabushiki Kaisha, priority 1997, dated 2002)

Columns and labels:
Assay type in all cases: physicochemical
[1] = Color rendering property (hue change under tungsten light versus standard light source, visual); design: key: ∘: Change in hue was small.; Δ: Change in hue was somewhat large.; X: Change in hue was large; settings: hue change under tungsten light compared with standard light source
Method: (§1) A liquid having the following formulation was prepared and passed through a 0.45 μm membrane filter to obtain an aqueous ink composition for ink jet printers.
(§2) An ink jet recording was conducted on three different papers, i.e. plain papers (Canon printer paper A4 (TLB5A4S)), ink jet papers A (Color BJ Paper LC 101; ex. Canon) and ink jet papers B (coated papers for ink jet printer STX73 A4; ex. Sharp) by means of an ink jet printer (trade name NOVA JET III; ex. ENCAD). The thus-recorded images were tested with respect to the resistances to light and water and a color rendering property.
Discoloration was judged by the visual examination by comparing the hue change under the tungsten light with that under the standard light source.

[2] = Test for resistance to light of the recorded images (carbon arc fade meter, Blue Scale JIS L-0841); settings: 20 hours carbon arc fade meter; for light fastness (rank) ink jet paper A: ink jet print on ink jet paper A (Color BJ Paper LC 101, Canon); for light fastness (rank) ink jet paper B: ink jet print on ink jet paper B (coated paper STX73 A4, Sharp); for light fastness (rank) plain paper: ink jet print on plain paper (Canon TLB5A4S)
Method: as §1, §2
The recorded images were irradiated with light for 20 hours by means of a carbon arc fade meter (ex. SUGA Shikenkisha). Light fastness was judged according to the Blue Scale for light resistance standard as defined in JIS L-0841.

[3] = Test for resistance to water of the recorded images (immersion in water, visual examination of dropout); design: key to water fastness plain paper: ∘: Less amount of the compound was dropped out.; Δ: About half of the compound was dropped out.; X: Large amount of the compound was dropped out; settings: immersed in water 2 minutes with mild stirring, dried; for water fastness ink jet paper A: ink jet print on ink jet paper A; for water fastness ink jet paper B: ink jet print on ink jet paper B; for water fastness plain paper: ink jet print on plain paper
Method: as §1, §2
Test specimen was immersed in water contained in a beaker with mild stirring for 2 minutes and dried. Amount of the compound was observed by the visual examination before and after the immersion, and dropout of the compound was judged.

color rendering property [1]	light fastness (rank) ink jet paper A [2]	light fastness (rank) ink jet paper B [2]	light fastness (rank) plain paper [2]	water fastness ink jet paper A [3]	water fastness ink jet paper B [3]	water fastness plain paper [3]	SMILES
◯	4-5 rank	5 rank	5 rank	◯	◯	Δ˜◯	COc1cc(N=Nc2cc(S(=O)(=O)O)cc3cc(S(=O)(=O)O)cc(O)c23)c(C)cc1N=Nc1c(S(=O)(=O)O)cc2ccc(N=Nc3cc(S(=O)(=O)O)c(N)cc3N)cc2c1O [compound 0005]
◯	3-4 rank	4 rank	4 rank	◯	◯	◯	COc1cc(N=Nc2cc(S(=O)(=O)O)cc3cc(S(=O)(=O)O)cc(O)c23)c(C)cc1N=Nc1c(S(=O)(=O)O)cc2ccc(N=Nc3ccc(NCC(=O)O)cc3NCC(=O)O)cc2c1O [compound 0007]
◯	4 rank	4 rank	4-5 rank	◯	◯	Δ˜◯	COc1cc(N=Nc2cc(S(=O)(=O)O)cc3cc(S(=O)(=O)O)cc(O)c23)c(NC(C)=O)cc1N=Nc1c(S(=O)(=O)O)cc2ccc(N=Nc3ccc(N)cc3O)cc2c1O [compound 0011]

Second part, the compound before the results:

SMILES	color rendering property [1]	light fastness (rank) ink jet paper A [2]	light fastness (rank) ink jet paper B [2]	light fastness (rank) plain paper [2]	water fastness ink jet paper A [3]	water fastness ink jet paper B [3]	water fastness plain paper [3]
Nc1cc2c(O)c(N=Nc3ccc(N=Nc4ccc(S(=O)(=O)[O-])cc4)c4ccc(S(=O)(=O)[O-])cc34)c(S(=O)(=O)[O-])cc2cc1S(=O)(=O)[O-].[Na+].[Na+].[Na+].[Na+] [compound 1, C.I. Food Black 2, reference compound]	Δ	3 rank	4-5 rank	4-5 rank	◯	–	–
COc1cc(N=Nc2cc(S(=O)(=O)O)cc3cc(S(=O)(=O)O)cc(O)c23)c(C)cc1N=Nc1c(S(=O)(=O)O)cc2ccc(N=Nc3ccc(N)cc3N)cc2c1O [compound 0001]	◯	4-5 rank	5 rank	5 rank	◯	◯	Δ˜◯
Nc1ccc2cc(S(=O)(=O)O)c(N=Nc3ccc(N=Nc4cc(C(=O)O)cc(C(=O)O)c4)c4ccccc34)c(O)c2c1 [compound 2, reference compound]	–	2 rank	4 rank	4 rank	◯	◯	◯
COc1cc(N=Nc2cc(S(=O)(=O)O)cc3cc(S(=O)(=O)O)cc(O)c23)c(C)cc1N=Nc1c(S(=O)(=O)O)cc2ccc(N=Nc3ccc(N)cc3O)cc2c1O [compound 0002]	◯	4 rank	5 rank	4-5 rank	◯	◯	Δ˜◯
COc1cc(N=Nc2cc(S(=O)(=O)O)cc3cc(S(=O)(=O)O)cc(O)c23)c(C)cc1N=Nc1c(S(=O)(=O)O)cc2ccc(N=Nc3ccc(O)cc3O)cc2c1O [compound 0003]	◯	3-4 rank	4-5 rank	4-5 rank	◯	◯	Δ
